Entries after “also recorded” stand apart in the source; their conditions may differ.
What was measured:
prostate cancer cells = test: Induction of apoptotic death of prostate cancer cells (summary of FIGS. 9A-9E); type: cell-based, human
Protocol: (§1) CWR22Rv1 prostate cancer cells were treated with N6BAP or the control compound C5 (Ctrl) at 25 μM concentration or vehicle for 24 h. Following trypan blue exclusion, the attached viable vs. de-attached dead cells were counted. […] The bars indicate mean±SD of triplicate wells. In another assay, CWR22Rv1, LNCaP and DU145 cells were treated with N6BAP, the control compound C5 (Ctrl) or vehicle at indicated concentrations. The fraction of alive cells was determined by MTS ([…]) metabolic activity assay (CellTiter 96® AQueous Assay kit). The results are shown in FIGS. 9C, 9D and 9E, respectively.

[1] = system: T47D human breast cancer cells; test: Cell viability assay, T47D; type: cell-based
Protocol: as §1
The procedure of Example 9 was followed, substituting cells of the following solid tumor cell lines for the cells treated in Example 9: A549 human lung cancer cells, CAPAN human pancreatic cancer cells, T47D human breast cancer cells, […], A2058 human melanoma and COS-7 monkey fibroblast cell lines.

Stat3 = Stat3 (Homo sapiens, UniProt P40763); test: IL-6-induced nuclear translocation of Stat3 in DU145 cells (immunofluorescence); type: cell-based; parameters: endogenous in cells; host or cells: DU145; details: 2 hours pretreatment, 10 nmol/L IL-6 30 minutes
Protocol: DU145 prostate cancer cells were pretreated with N6BAP or vehicle (DMSO) for 2 hours and then stimulated with 10 nmol/L IL-6 for 30 minutes. Cells were fixed with 100% methanol for 15 min and subsequently permeabilized with 0.1% Triton X-100 in PBS (pH 7.4). After blocking with 2% bovine serum albumin in PBS, cells were incubated with an antibody specific for Stat3 at 4° C. for 2 hours. Cells were then washed with PBS and incubated with FITC-conjugated secondary antibody (Jackson ImmunoResearch) at room temperature for 1 hour. The images were taken by using an inverted fluorescence microscopy (Carl Zeiss).

Stat5a/b = test: Clinical prostate cancers ex vivo in explant organ cultures: nuclear Stat5a/b immunohistochemistry; type: cell-based, human; details: 7 days, N6BAP 5, 10, 25, 50 and 100 μM; C5 100 m
Protocol: The specimens comprised de-identified excess tissue obtained after the completion of pathology diagnosis. A zero-sample prior to organ culture was formalin-fixed for each individual prostate cancer for the analysis of the nuclear Stat5a/b status. The prostate organ cultures were performed as described earlier (Ahonen et al., Endocrinology (2002), 143:228-238). Briefly, prostate cancer tissue was cut into approximately 1 mm^3 pieces in a plain culture medium and transferred onto lens papers lying on stainless steel grids in petri dishes. The medium was phenol-free medium 199 with Earle's salts (Sigma) containing dialyzed 5% fetal calf serum, G-penicillin (100 IU/ml), streptomycin sulfate ([…]), and glutamine (100 μg/ml). […] Tissue explants were cultured in a medium containing the N6BAP or control compound C5 at indicated concentrations (C5: […]; N6BAP: 5, 10, 25, 50 and 100 μM) 7 days, after which the explants were fixed in formalin and analyzed for Stat5a/b activation and viability of prostate cancer epithelial compartment. Viability of the epithelial cells in the prostate cancer explants at the end of the cultures were scored by counting the viable epithelial cells per explant.
Nuclear Stat5a/b indexes were determined by counting the Stat5-positive cells per 500 epithelial cells in the cultured explants in each treatment group.

HepG2 (hepatocellular) = test: Cell viability assay, HepG2; type: cell-based
Stat5b = molecular target: T1, Stat5b (Homo sapiens, UniProt P51692); test: Stat5b transcriptional activity, β-casein promoter luciferase reporter gene assay in PC-3 cells; type: cell-based; details: 1 hour pretreatment, 10 nM hPrl for 16 hours
T1 construct: expressed in transfected cells; host or cells: PC-3 (human prostate cancer cell line)
Protocol: Cells of the human prostate cell line PC-3 were plated into 96-well plate at the density of 2×10^5 per well. After 24 hours of plating, cells were transiently co-transfected using FuGENE6 (Roche) with 0.25 μg of each of pStat5a or pStat5b, pPrlR (prolactin receptor) plasmids, 0.5 μg of pBeta-casein-luc and 0.025 μg of pRL-TK (Renilla luciferase) plasmids as an internal control. After another 24 hours of transfection, the cells were starved in serum-free medium for 8 hours, pretreated with N^6-benzyladenosine-5′-monophosphate (“N6BAP”), or one of five control compounds (designated “C3” through “C7”) of similar molecular weight but unrelated chemical structure to N6BAP), for 1 hour, and then stimulated with 10 nM human prolactin (hPrl) in the serum-free medium for additional 16 hours. The lysates were assayed for firefly and Renilla luciferase activities using the Dual-Luciferase reporter assay system (Promega). Three independent experiments were carried out in triplicate. The firefly luciferase activity was normalized to the Renilla luciferase activity of the same sample, and the mean was calculated from the parallels. From the mean values of each independent run, the overall mean and its standard deviation (S.D.) were calculated.

CWR22Rv1 cells = test: Cell viability, MTS metabolic activity assay, CWR22Rv1; type: cell-based, human; details: CWR22Rv1, 72 h
Protocol: as §1

T1 sequence (P51692 whole entry, species assumed): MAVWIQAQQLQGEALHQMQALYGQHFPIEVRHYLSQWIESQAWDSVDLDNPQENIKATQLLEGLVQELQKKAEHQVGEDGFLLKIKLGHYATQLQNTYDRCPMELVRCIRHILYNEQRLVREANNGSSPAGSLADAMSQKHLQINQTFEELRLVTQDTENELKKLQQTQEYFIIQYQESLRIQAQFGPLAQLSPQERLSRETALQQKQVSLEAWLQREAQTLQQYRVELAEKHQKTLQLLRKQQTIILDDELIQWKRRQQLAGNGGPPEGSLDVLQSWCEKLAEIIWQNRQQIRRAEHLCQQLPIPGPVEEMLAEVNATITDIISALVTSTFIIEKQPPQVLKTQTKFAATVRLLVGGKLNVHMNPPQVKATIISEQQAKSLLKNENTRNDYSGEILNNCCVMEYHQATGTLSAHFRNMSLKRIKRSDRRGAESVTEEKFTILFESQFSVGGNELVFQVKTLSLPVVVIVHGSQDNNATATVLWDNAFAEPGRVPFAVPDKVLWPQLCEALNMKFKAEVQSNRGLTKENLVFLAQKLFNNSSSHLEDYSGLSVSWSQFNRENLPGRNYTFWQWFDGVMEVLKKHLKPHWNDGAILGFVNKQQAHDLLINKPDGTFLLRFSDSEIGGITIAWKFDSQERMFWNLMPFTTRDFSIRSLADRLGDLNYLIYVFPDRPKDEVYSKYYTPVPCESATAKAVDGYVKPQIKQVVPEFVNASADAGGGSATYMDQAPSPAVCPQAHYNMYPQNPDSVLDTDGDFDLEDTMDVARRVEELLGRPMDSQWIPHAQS
Stat3, sequence (P40763 whole entry, species assumed): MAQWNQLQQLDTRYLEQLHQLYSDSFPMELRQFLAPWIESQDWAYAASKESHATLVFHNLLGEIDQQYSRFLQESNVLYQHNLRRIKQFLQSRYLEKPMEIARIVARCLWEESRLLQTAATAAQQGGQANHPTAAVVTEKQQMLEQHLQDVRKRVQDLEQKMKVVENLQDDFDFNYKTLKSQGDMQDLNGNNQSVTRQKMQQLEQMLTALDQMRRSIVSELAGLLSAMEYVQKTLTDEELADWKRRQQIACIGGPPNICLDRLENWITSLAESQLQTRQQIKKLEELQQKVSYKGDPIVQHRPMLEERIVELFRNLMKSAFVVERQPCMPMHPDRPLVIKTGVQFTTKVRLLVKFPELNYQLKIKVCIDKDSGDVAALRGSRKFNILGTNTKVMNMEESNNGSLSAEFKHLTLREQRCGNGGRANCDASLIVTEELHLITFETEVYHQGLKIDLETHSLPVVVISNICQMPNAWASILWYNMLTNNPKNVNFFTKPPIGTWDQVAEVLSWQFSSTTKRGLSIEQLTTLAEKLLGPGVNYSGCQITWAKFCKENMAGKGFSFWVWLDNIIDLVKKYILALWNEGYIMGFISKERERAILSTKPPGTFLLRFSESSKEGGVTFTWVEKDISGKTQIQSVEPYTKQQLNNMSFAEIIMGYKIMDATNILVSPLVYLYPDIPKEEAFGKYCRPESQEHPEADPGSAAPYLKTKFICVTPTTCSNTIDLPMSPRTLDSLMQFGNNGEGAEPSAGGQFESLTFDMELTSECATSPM

## O=P(O)(O)OC[C@H]1O[C@@H](n2cnc3c(NCc4ccccc4)ncnc32)[C@H](O)[C@@H]1O [N6BAP, N^6-benzyladenosine-5′-monophosphate]
Prostate cancer cells
  treatment time required to induce prostate cancer cell apoptosis: at least 48 hours
Prostate cancer cells; CWR22Rv1, LNCaP, DU145
  apoptotic death of prostate cancer cells: induces apoptotic death of prostate cancer cells
[1]
  cell viability: did not affect the viability
Stat3
  nuclear translocation of IL-6-induced Stat3: did not block translocation of Stat3 to the nucleus
Stat5a/b
  nuclear Stat5 expression in explant organ cultures: reduced the levels of nuclear Stat5 expression
HepG2 (hepatocellular)
  cell viability: did not affect the viability
Stat5b
  transcriptional activity of Stat5b on the β-casein gene promoter: inhibited Stat5a and Stat5b transcriptional activity in a concentration-dependent manner; also recorded: effectively blocks the transcriptional activity
CWR22Rv1 cells
  number of viable cells: decreases the number of viable cells
